Read-outs that look alike come from different tables or passages of the source.
Key:
[1] = tested on: caspase 3 (Cas-3), active form p17; assay: Ex vivo Western blot of tumour tissues, cleaved caspase 3; assay type: in vivo, mice; details: pooled tumour samples
Description: The expression of caspase 3, MCL-1, p53, and β-actin as loading control were evaluated by Western blot analysis and immunodetection. Lysates were mixed with a denaturing loading dye [250 mM Tris-HCl pH 6.8, 5% (v/v) β-mercaptoethanol, 10% (w/v) sodium dodecyl sulfate, 30% (v/v) glycerol, 0.04% (w/v) bromophenol blue], heated for 5 min at 70°C. […] The final protein amount was 50 μg per well. After protein separation in the gel, they were transferred on the Immun-Blot polyvinylidene difluoride membrane 0.2 μm (Bio-Rad, USA). Then, the membrane was blocked by 5% (w/v) BSA in TBST [10 mM Tris-HCl pH 7.5, 150 mM NaCl, 0.1% (v/v) Tween-20]. […] HRP was detected by Clarity Western ECL Substrate (Bio-Rad, USA) using chemiluminescent documentation system Syngene PXi-4 (UK).

[2] = tested on: 22Rv1 prostate carcinoma cells; assay: In vitro cytotoxicity testing (MTT assay), 22Rv1; assay type: cell-based, human; details: 24 h drug exposure, no recovery, read-out: IC50±SD, 22Rv1
Description: (§1) A2780 ovarian carcinoma, A2780R cisplatin-resistant ovarian carcinoma, HOS osteosarcoma, G361 malignant melanoma, MCF7 breast carcinoma, A549 lung carcinoma, HeLa cervix carcinoma, 22Rv1 prostate carcinoma and Caco-2 colorectal carcinoma human cancer cell lines were purchased from the European Collection of Cell Cultures (ECACC), while the human non-cancerous hepatocytes (Hep) were supplied by Biopredic Intl. The cell lines were cultured, according to the suppliers`instructions, in RPMI-1640 medium supplemented with 10% of fetal calf serum, 1% of 2 mM glutamine, and 1% penicillin/streptomycin. All cell lines were grown as adherent monolayers at 37°C and 5% CO2 in a humidified atmosphere.
(§2) The cells were seeded to 96-well culture plates, pre-incubated in drug-free media at 37°C for 24 h and treated typically with the 0.01–50.0 μM solutions, prepared from the stock solutions by dilution with medium, for 24 h at 37°C. […] In parallel with compounds 1–8 and the reference drugs, the cells were also treated with vehicle (0.1% DMF in medium; negative control) and Triton X-100 (1%; positive control) to assess the minimal and maximal cell damage, respectively. The MTT assay was used to determine the cell viability; MTT = 3-(4,5-dimethylthiazol-2-yl)-2,5-diphenyltetrazolium bromide. A concentration of the formed dye was evaluated spectrophotometrically at 540 nm (TECAN, Schoeller Instruments LLC).
(§3) The data were expressed as the percentage of viability, where 100% and 0% represents the treatments with negative and positive controls, respectively. The data from the cancer cells were acquired from three independent experiments (conducted in triplicate) using cells from different passages. The resulting IC50 values (μM) were calculated from viability curves and the results are presented as arithmetic mean±SD.

[3] = tested on: G361 malignant melanoma cells; assay: In vitro cytotoxicity testing (MTT assay), G361; assay type: cell-based, human; details: 24 h drug exposure, no recovery, read-out: IC50±SD, G361
Description: as §1, §2, §3

[4] = tested on: spleen, renal tissue and tumour tissues of L1210 leukaemia-bearing mice; assay: Histological observations (light microscopy, semi-quantitative); details: relative scale 0 to 4
Description: Randomly selected paraffin block preparations were stained by standard hematoxylin and eosin stain for light microscopic evaluation. Due to high cellularity, the semi-quantitative method was used for the evaluation of necrosis in well-circumcised and diffuse tumour samples and PMN cells infiltration in normal tissues as an indirect sign of toxicity to healthy tissues. The evaluation of necrotic processes and infiltration by PMN cells was semi-quantitative, based on the percentage of necrotic areas and/or infiltrated area in the view-field of at least three different samples.

[5] = tested on: HeLa cervix carcinoma cells; assay: In vitro cytotoxicity testing (MTT assay), HeLa; assay type: cell-based, human; details: 24 h drug exposure, no recovery, read-out: IC50±SD, HeLa
Description: as §1, §2, §3

[6] = tested on: MCL-1L (37 kDa); assay: Ex vivo Western blot of tumour tissues, MCL-1L; assay type: in vivo, mice; details: pooled tumour samples
Description: (§4) Frozen tumour samples were homogenized by a bench blender IKA DI25 (IKA-Werke, Germany) in the presence of a lysis buffer [cOmplete Protease Inhibitor Cocktail (Roche, Germany), 50 mM Tris-HCl pH 7.5, 1 mM EGTA, 1 mM EDTA, 1 mM sodium orthovanadate, 50 mM sodium fluoride, 5 mM sodium pyrophosphate, 270 mM sucrose, 0.5% (v/v) Triton X-100]. Subsequently, the blended samples were centrifuged at 9.000 g at 4°C for 15 min. The supernatants were collected and the protein concentration was measured by the Brandford’s method using the Brandford reagent (Amresco, USA) according to the manufacturer’s manual. The measured samples were stored at -80°C for the following experiments.
(§5) The expression of caspase 3, MCL-1, p53, and β-actin as loading control were evaluated by Western blot analysis and immunodetection. Lysates were mixed with a denaturing loading dye [250 mM Tris-HCl pH 6.8, 5% (v/v) β-mercaptoethanol, 10% (w/v) sodium dodecyl sulfate, 30% (v/v) glycerol, 0.04% (w/v) bromophenol blue], heated for 5 min at 70°C. To eliminate intra-species variability, and to obtain the same amount of proteins from all experimental groups, all samples from one group of animals were pooled together and loaded onto a 15% polyacrylamide denaturing gel. The final protein amount was 50 μg per well. After protein separation in the gel, they were transferred on the Immun-Blot polyvinylidene difluoride membrane 0.2 μm (Bio-Rad, USA). Then, the membrane was blocked by 5% (w/v) BSA in TBST [10 mM Tris-HCl pH 7.5, 150 mM NaCl, 0.1% (v/v) Tween-20]. […] HRP was detected by Clarity Western ECL Substrate (Bio-Rad, USA) using chemiluminescent documentation system Syngene PXi-4 (UK).

[7] = tested on: HOS osteosarcoma cells; assay: In vitro cytotoxicity testing (MTT assay), HOS; assay type: cell-based, human; details: for IC50: 24 h drug exposure, no recovery, MTT, read-out: IC50±SD, HOS
Description: as §1, §2, §3

[8] = tested on: A2780R cisplatin-resistant ovarian carcinoma cells; assay: In vitro cytotoxicity testing (MTT assay), A2780R; assay type: cell-based, human; details: for resistance factor (RF), IC50(A2780R)/IC50(A2780): 24 h IC50 values; for IC50: 24 h drug exposure, no recovery, MTT, read-out: IC50±SD, A2780R
Description: (§6) All cell lines were grown as adherent monolayers at 37°C and 5% CO2 in a humidified atmosphere.
(§7) The MTT assay was used to determine the cell viability; MTT = 3-(4,5-dimethylthiazol-2-yl)-2,5-diphenyltetrazolium bromide. A concentration of the formed dye was evaluated spectrophotometrically at 540 nm (TECAN, Schoeller Instruments LLC).
as §3

[9] = tested on: A549 lung carcinoma cells; assay: In vitro cytotoxicity testing (MTT assay), A549; assay type: cell-based, human; details: 24 h drug exposure, no recovery, read-out: IC50±SD, A549
Description: as §1, §2, §3

[10] = tested on: A2780 ovarian carcinoma cells; assay: In vitro cytotoxicity testing (MTT assay), A2780; assay type: cell-based, human
Description: as §6, §7, §3

[11] = tested on: human non-cancerous hepatocytes (Hep); assay: In vitro cytotoxicity testing (MTT assay), hepatocytes; assay type: cell-based; details: 24 h drug exposure, no recovery
Description: as §1, §2, §3

[12] = tested on: p53; assay: Ex vivo Western blot of tumour tissues, p53; assay type: in vivo, mice; details: pooled tumour samples
Description: as §4, §5

[13] = tested on: Caco-2 colorectal carcinoma cells; assay: In vitro cytotoxicity testing (MTT assay), Caco-2; assay type: cell-based, human; details: 24 h drug exposure, no recovery, MTT; read-out: IC50±SD, Caco-2
Description: as §6, §7, §3

[14] = tested on: MCF7 breast carcinoma cells; assay: In vitro cytotoxicity testing (MTT assay), MCF7; assay type: cell-based, human; details: 24 h drug exposure, no recovery, read-out: IC50±SD, MCF7
Description: as §1, §2, §3

[15] = tested on: L1210 mouse lymphocytic leukaemia cells; assay: In vivo antitumour activity testing, L1210 lymphocytic leukaemia model; design: species or system mice; details: dose equimolar to cisplatin 2 mg/kg, i.p.
Description: The experimental animals used for in vivo antitumour testing were female DBA/2 SPF mice obtained from Charles Rivers Laboratories. The animals were housed in the Sealsafe NEXT—IVC Blue Line Housing System (Tecniplast, Italy) to ensure the best possible experimental conditions and eliminate the risk of possible intergroup cross-contamination, and kept in Plexiglas cages at constant temperature (22±1°C) and relative humidity of 55±5% for one-week adaptation period before the start of the experiment. All experimental procedures were performed according to the National Institute of Health (NIH) Guide for the Care and Use of Laboratory Animals. The protocol was approved by the Expert Committee on the Protection of Animals Against Cruelty at the University of Veterinary and Pharmaceutical Sciences Brno (Permit Number: 71/2013). The number of pharmacological interventions was limited to the necessary minimum in order to minimize the suffering of animals, which were observed regularly for the symptoms connected with the tumour progression. […] No animals had to be sacrificed due to the above mentioned criteria of humane treatment and no post-application deaths within the 2 hours after the application were observed during the experiment. […] The animal tissues for the ex vivo experiments and histological evaluations were taken post mortem, in case of surviving animals immediately after they were sacrificed by the lethal dose of carbon dioxide inhalation, immediately followed by the cervical dislocation.
The animals were monitored several times a day for the signs of tumour progression and distress development.

[16] = tested on: A2780 cells; assay: Cellular accumulation of platinum (ICP-MS); assay type: cell-based, human; details: 24 h treatment at IC50 concentration
Description: The A2780 cells were seeded in 6-well culture plates (1×10^6 cells per well) and incubated overnight (37°C and 5% CO2 in a humidified incubator). […] The cells were washed with PBS (2 × 2 mL) after 24 h treatment, harvested by trypsin treatment, collected and centrifuged in PBS. The supernatants were discarded after centrifugation and pellets were digested in 500 μL of nitric acid (3 min at 150°C) using a microwave system Monowave300 (Anton Paar). Solutions were diluted with 4.5 mL of water and the platinum content was determined by ICP-MS. The obtained values were corrected for adsorption effects. The experiments were conducted in triplicate and the results are presented as arithmetic mean±SD.

[17] = Hydrophobicity studies (logP determination), octanol/water, ICP-MS; assay type: physicochemical; details: octanol/water (0.2 M KI)
Description: Complexes 4 and 6 (1 mmol) were ultrasonicated for 15 min in 10 mL of OSW, centrifuged and supernatants were collected. Aliquots (5 mL) of the obtained OSW solutions of complexes 4 and 6 were added to WSO (5 mL) and shaken for 2 h at ambient temperature. After that, the mixtures were centrifuged and aqueous layer was separated carefully. The platinum concentration was determined from OSW aliquots taken before ([Pt]OSWb) and after ([Pt]OSWa) partition by ICP-MS (ICP-MS spectrometer 7700x, Agilent) with the obtained values corrected for the adsorption effects. logP = log([Pt]WSO/[Pt]OSWa) equation was used for the partition coefficients calculation; [Pt]WSO = [Pt]OSWb−[Pt]OSWa. The experiments were conducted in triplicate.

[18] = tested on: cisplatin-sensitive HCT116 colon cancer cell line; design: method as in PMID 26226326; details: cited from earlier work
[19] = tested on: cisplatin-resistant HCT116 colon cancer cell line; design: method as in PMID 26226326; details: cited from earlier work
[20] = 24 h drug exposure, no recovery, MTT, read-out: IC50±SD, A2780

SMILES | IC50 [2] | IC50 [3] | IC50 [5] | IC50 [7] | resistance factor (RF), IC50(A2780R)/IC50(A2780) [8] | IC50 [8] | IC50 [9] | IC50 [10, 20] | IC50 [11] | IC50 [13] | IC50 [14] | other results
Clc1ccnc2[nH]ccc12.Clc1ccnc2[nH]ccc12.[I][Pt][I] [Complex 5, cis-[Pt(4Claza)2I2]] | 4.2 ± 0.1 µM | 3.2 ± 0.2 µM | 3.8 ± 0.3 µM | 0.5 ± 0.2 µM | 1.10 | 3.4 ± 0.2 µM | 4.7 ± 0.3 µM | 3.1 ± 0.1 µM | 4.2 µM | 2.4 ± 0.7 µM | 1.5 ± 0.5 µM | level of active form of Cas-3 in tumour tissue [1]: has not been observed; Areas of necrosis in tumour tissues [4]: 2 (2 = up to 50%); Infiltration of renal tissues (PMN cells) [4]: 1 (1 = up to 25%); Infiltration of spleen (PMN cells) [4]: 3 (3 = up to 75%); MCL-1L level in tumour tissue [6]: negligible effect; times more potent than cisplatin ([7]; HOS cell line): ≤ 47 times; IC50 ([10]; 6 h exposure, read-out: IC50, A2780, time-dependent cytotoxicity): 11 ± 2.9 µM; p53 level in tumour tissue [12]: did not affect; tolerability / signs of toxicity (e.g. weight loss) [15]: well-tolerated; percentage of mean survival time T/C [15]: 100%; mean survival time ± SD ([15]; 10 days after implantation, control 17.4±1.6 days): 17.3 ± 2.3 days
Brc1cnc2[nH]ccc2c1.Brc1cnc2[nH]ccc2c1.[I-].[I-].[Pt+2] [Complex 7, cis-[Pt(5Braza)2I2]] | 5.1 ± 0.8 µM | 3.4 ± 0.3 µM | 5.4 ± 1.2 µM | 1.4 ± 1.1 µM | 1.03 | 3.5 ± 0.5 µM | 7.3 ± 1.6 µM | 3.4 ± 0.2 µM | 3.8 µM | 3.6 ± 0.2 µM | 1.6 ± 0.8 µM | 
Ic1c[nH]c2c1ccc[n+]2[Pt-2]([I])([I])[n+]1cccc2c(I)c[nH]c21 [Complex 4, cis-[PtI2(3Iaza)2]] | 4.5 ± 1.6 µM | 1.6 ± 0.7 µM | 6.2 ± 0.7 µM | 2.8 ± 1 µM | 1.13 | 2.6 ± 0.8 µM | 9.8 ± 1.3 µM | 2.3 ± 1.1 µM | 11.8 µM | 3.3 ± 0.1 µM | 1.8 ± 0.3 µM | cellular accumulation [16]: 354±63 pmol Pt/10^6 A2780 cells; logP [17]: 0.41
Clc1c[nH]c2ncccc12.Clc1c[nH]c2ncccc12.[I][Pt][I] [Complex 2, cis-[Pt(3Claza)2I2]] | 4.8 ± 2.4 µM | 2.3 ± 1 µM | 4.8 ± 0.4 µM | 1.3 ± 0.8 µM | 0.89 | 3.3 ± 0.5 µM | 6.4 ± 1.4 µM | 3.7 ± 0.4 µM | 5.9 µM | 3.1 ± 0.2 µM | 1.5 ± 0.4 µM | 
[I][Pt][I].c1cnc2[nH]ccc2c1.c1cnc2[nH]ccc2c1 [Complex 1, cis-[Pt(aza)2I2]] | 4.6 ± 1.2 µM | 2.9 ± 0.6 µM | 7 ± 0.6 µM | 0.8 ± 0.4 µM | 0.94 | 3.3 ± 0.3 µM | 12.3 ± 1.1 µM | 3.5 ± 0.7 µM | 3.9 µM | 3.3 ± 0.2 µM | 1.7 ± 0.8 µM | 
N.N.[I-].[I-].[Pt+2] [cis-[PtI2(NH3)2]] |  |  |  |  |  |  |  |  |  |  |  | IC50 [18]: 13.4 µM; IC50 [19]: 4.2 µM
Brc1c[nH]c2ncccc12.Brc1c[nH]c2ncccc12.[I][Pt][I] [Complex 3, cis-[Pt(3Braza)2I2]] | 4.2 ± 1.2 µM | 3.1 ± 0.2 µM | 4.7 ± 0.8 µM | 2.2 ± 1.2 µM | 1.14 | 3.2 ± 0.2 µM | 8.8 ± 2.2 µM | 2.8 ± 0.3 µM | 3.9 µM | 3 ± 0.1 µM | 1.9 ± 0.5 µM | 

Reference: paper PMC5131915, “Platinum(II) Iodido Complexes of 7-Azaindoles with Significant Antiproliferative Effects: An Old Story Revisited with Unexpected Outcomes” (PLoS ONE, 2016)
